Columns and labels:
Sorghum HPPD = assay: HPPD activity assay, Sorghum HPPD; assay type: biochemical; conditions: normalized on Arabidopsis wild-type HPPD
Procedure: HPPD produces homogentisic acid and CO2 from 4-hydroxyphenylpyruvate (4-HPP) and O2. The activity assay for HPPD is based on the analysis of homogentisic acid by reversed phase HPLC.
The assay mixture can contain 150 mM potassium phosphate buffer pH 7.0, 50 mM L-ascorbic acid, 1 μM FeSO4 and 7 μg of purified enzyme in a total volume of 1 ml.
Inhibitors are dissolved in DMSO (dimethylsulfoxide) to a concentration of 20 mM or 0.5 mM, respectively. From this stock solution serial five-fold dilutions are prepared in DMSO, which are used in the assay. The respective inhibitor solution accounts for 1% of the assay volume. Thus, final inhibitor concentrations range from 200 μM to 2.5 nM or from 5 μM to 63 pM, respectively. After a preincubation of 30 min the reaction is started by adding 4-HPP to a final concentration of 0.1 mM. The reaction is allowed to proceed for 120 min at room temperature. The reaction is stopped by addition of 100 μl of 4.5 M phosphoric acid.
Activities are normalized by setting the uninhibited enzyme activity to 100%. IC50 values are calculated using non-linear regression.
The assay mixture can contain 150 mM potassium phosphate buffer pH 7.0, 50 mM L-ascorbic acid, 100 μM Catalase (Sigma-Aldrich), 1 μM FeSO4 and 0.2 units of purified HPPD enzyme in a total volume of 505 μl. […]
Inhibitors are dissolved in DMSO (dimethylsulfoxide) to a concentration of 0.5 mM. […] IC50 values are calculated using non-linear regression.
Using methods which are described in the above examples or well known in the art, purified, recombinant wildtype HPPD enzymes are characterized with respect to their kinetic properties and sensitivity towards HPPD inhibiting herbicides. Apparent michaelis constants (Km) and maximal reaction velocities (Vmax) are calculated by non-linear regression with the software GraphPad Prism 5 (GraphPad Software, La Jolla, USA) using a substrate inhibition model. […] Weighted means (by standard error) of Km and […] values are calculated from at least three independent experiments. […]

[1] = tested on: transgenic soybean plants, Arabidopsis P336A E363Q I393L L385V, event SDS-9999; assay: Greenhouse testing of transgenic soybean plants, Arabidopsis P336A E363Q I393L L385V; assay type: in vivo, Glycine max; conditions: soybean SDS-9999, 5 days after herbicide treatment, average of 8 T1
Text: (§1) Various methods for the production of stably transformed plants are well known in the art. Coumarone-derivative herbicide tolerant soybean (Glycine max) or corn (Zea mays) plants can be produced by a method described by Olhoft et al. (US patent 2009/0049567). Briefly, HPPD or HST encoding polynucleotides are cloned into a binary vector using standard cloning techniques as described by Sambrook et al. (Molecular cloning (2001) Cold Spring Harbor Laboratory Press). The final vector construct contains an HPPD or HST encoding sequence flanked by a promoter sequence (e.g. the ubiquitin promoter (PcUbi) sequence) and a terminator sequence (e.g. the nopaline synthase terminator (NOS) sequence) and a resistance marker gene cassette (e.g. AHAS) (FIG. 2). Optionally, the HPPD or HST gene can provide the means of selection. Agrobacterium-mediated transformation is used to introduce the DNA into soybean's axillary meristem cells at the primary node of seedling explants. After inoculation and co-cultivation with Agrobacteria, the explants are transferred to shoot induction medium without selection for one week. The explants are subsequently transferred to shoot induction medium with 1-3 μM imazapyr (Arsenal) for 3 weeks to select for transformed cells. Explants with healthy callus/shoot pads at the primary node are then transferred to shoot elongation medium containing 1-3 μM imazapyr until a shoot elongates or the explant dies. After regeneration, transformants are transplanted to soil in small pots, placed in growth chambers (16 hr day/8 hr night; 25° C. day/23° C. night; 65% relative humidity; 130-150 mE m−2 s−1) and subsequently tested for the presence of the T-DNA via Taqman analysis. After a few weeks, healthy, transgenic positive, single copy events are transplanted to larger pots and allowed to grow in the growth chamber. Transformation of corn plants is done by a method described by McElver and Singh (WO 2008/124495). Plant transformation vector constructs containing HPPD or HST sequences are introduced into maize immature embryos via Agrobacterium-mediated transformation. Transformed cells are selected in selection media supplemented with 0.5-1.5 μM imazethapyr for 3-4 weeks. Transgenic plantlets are regenerated on plant regeneration media and rooted afterwards. Transgenic plantlets are subjected to TaqMan analysis for the presence of the transgene before being transplanted to potting mixture and grown to maturity in greenhouse. Arabidopsis thaliana is transformed with HPPD or HST sequences by floral dip method as described by McElver and Singh (WO 2008/124495). Transgenic Arabidopsis plants are subjected to Tag Man analysis for analysis of the number of integration loci. Transformation of Oryza sativa (rice) are done by protoplast transformation as described by Peng et al. (U.S. Pat. No. 6,653,529)
(§2) Transgenic plants expressing heterologous HPPD or HST enzymes are tested for tolerance against coumarone-derivative herbicides in greenhouse experiments.
(§3) For post emergence treatment, the test plants are first grown to a height of 3 to 15 cm, depending on the plant habit, and only then treated with the herbicides. For this purpose, the test plants are either sown directly and grown in the same containers, or they are first grown separately and transplanted into the test containers a few days prior to treatment.
(§4) Depending on the species, the plants are kept at 10-25° C. or 20-35° C. The test period extends over 3 weeks. During this time, the plants are tended and their response to the individual treatments is evaluated. […] Tolerance to coumarone-derivative herbicides can also be assessed in Arabidopsis. In this case transgenic Arabidopsis thaliana plants are assayed for improved tolerance to coumarone-derivative herbicides in 48-well plates. Seeds are surface sterilized by stirring for 5 min in ethanol+water (70+30 by volume), rinsing one time with ethanol+water (70+30 by volume) and two times with a sterile, deionized water. […]

[2] = tested on: transgenic corn plants, Arabidopsis I393L L385V, event SDM-71855; assay: Greenhouse testing of transgenic corn plants, Arabidopsis I393L L385V; assay type: in vivo, Zea mays; conditions: corn SDM-71855, 5 days after herbicide treatment, average of 8 T1
Text: as §1, §2, §3, §4

Structure (SMILES): CC1(C)c2cccnc2C(O)=C(c2ccc(Cl)nc2Cl)S1(=O)=O [Inhibitor 2, 7-(2,6-dichloro-3-pyridyl)-5,5-dimethyl-6,6-dioxo-thiopyrano[4,3-b]pyridin-8-ol]
- Normalized tolerance index TI (Sorghum HPPD): 1.2
- Injury evaluation, scale of 1-100, bleaching phenotype ([1]; 2.5 g/ha): 6
- Injury evaluation, scale of 1-100, bleaching phenotype ([1]; 10 g/ha): 5
- Injury evaluation, scale of 1-100, bleaching phenotype ([1]; 40 g/ha): 15
- Injury evaluation, scale of 1-100, bleaching phenotype ([2]; 2.5 g/ha): 7
- Injury evaluation, scale of 1-100, bleaching phenotype ([2]; 10 g/ha): 7
- Injury evaluation, scale of 1-100, bleaching phenotype ([2]; 40 g/ha): 25

Structure (SMILES): Cc1c(C(=O)c2cnn(C)c2O)ccc(S(C)(=O)=O)c1C1=NOCC1 [Topramezone, reference compound]
- Injury evaluation, scale of 1-100, bleaching phenotype ([1]; 6.25 g/ha): 7
- Injury evaluation, scale of 1-100, bleaching phenotype ([1]; 25 g/ha): 18
- Injury evaluation, scale of 1-100, bleaching phenotype ([1]; 100 g/ha): 24
- Injury evaluation, scale of 1-100, bleaching phenotype ([2]; 6.25 g/ha): 0
- Injury evaluation, scale of 1-100, bleaching phenotype ([2]; 25 g/ha): 0
- Injury evaluation, scale of 1-100, bleaching phenotype ([2]; 100 g/ha): 4

Structure (SMILES): CC1=NOC(c2c(Cl)ccc(C3=C(O)c4ncccc4C(C)(C)S3(=O)=O)c2Cl)C1 (centres unmarked) [Inhibitor 1, 7-[2,4-dichloro-3-(3-methyl-4,5-dihydroisoxazol-5-yl)phenyl]-5,5-dimethyl-6,6-dioxo-thiopyrano[4,3-b]pyridin-8-ol]
- Normalized tolerance index TI (Sorghum HPPD): 2.1

From patent US20140357487A1, “PLANTS HAVING INCREASED TOLERANCE TO HERBICIDES” (BASF SE, priority 2011, published 2014)
